Molecules are shown by their SMILES. Several values for one entry are separate records, joined by “and”; a condition that tells them apart may be missing. Equal entries are not always repeated. Where two headings read alike, the source gives them in different places.

The term ED50 denotes the dose at which the effect has come halfway, by size or by number of responders. Usually inhibition stands for the relative decrease from the control value, in per cent. One may read the IC50 as the concentration at which inhibition is half-maximal. A high value points to weaker potency in that assay.

Test [1] concerns mice. The test is described as follows: Combination therapy with morphine, isobolographic analysis in tail-flick assay. The note with it: for Dose Reduction Index (DRI) Morphine: in combination with tosedostat, 50% efficacy; for ED50: Mus musculus, sc.
A further test has as its target T1, Neprilysin (NEP) (Homo sapiens, UniProt P08473).
T1 construct: purchased Enzo Life Sciences
The test is described as follows: Neprilysin inhibition assay (Mca-[…](Dpn) FRET substrate). The format is biochemical. To be noted: for inhibition at 10 µM: inhibitor 10 μM, read-out: NEP @ 10 μM (percent inhibition); for IC50: dose response, 3x dilutions from 100 μM. The protocol:
Single concentration studies at 10 μM: Neprilysin inhibition assays were performed as described previously. The substrate Mca-[…](Dpn) and endopeptidase NEP were purchased from Enzo Life Sciences. […] Plate was mixed with a plate shaker at 1500 rpm for 30 seconds. The reaction was started with the addition of 6 μM of the FRET substrate and mixed for another 30 seconds at 1500 rpm. Mca fluorescence is quenched by Dpn until cleavage at Phe by NEP. The accumulation of the Mca was measured by exciting at 320 nm and reading the fluorescence at 405 nm on a Molecular Devices M5e plate reader for 40 minutes at room temperature. Percent inhibition is calculated in GraphPad Prism software using slopes in the linear range for each inhibitor at 10 μM.
Dose-Response Studies for NEP: Neprilysin inhibition assays were performed as described previously. The substrate Mca-[…](Dpn) and endopeptidase NEP were purchased from Enzo Life Sciences. Briefly, 0.5 nM NEP was incubated with 0.5 μL inhibitor. Compounds were tested at 3× dilutions from 100 μM final concentration in 50 mM HEPES pH 6.5 in 50 μL total volume in a black 384-well plate. Plate was mixed with a plate shaker at 1500 rpm for 30 seconds. The reaction was started with the addition of 6 μM of the FRET substrate and mixed for another 30 seconds at 1500 rpm. Mca fluorescence is quenched by Dpn until cleavage at Phe by NEP. The accumulation of the Mca was measured by exciting at 320 nm and reading the fluorescence at 405 nm on a Molecular Devices M5e plate reader for 40 minutes at room temperature. Steady state velocities were used to determine IC50 values by fitting the velocities vs. inhibitor concentration to the sigmoidal concentration-response curve (variable slope) using GraphPad Prism.

For a further test, the target named is T2, Aminopeptidase N (APN) (Homo sapiens, UniProt P15144).
T2 construct: purchased R&D Systems
T2 sequence (P15144 whole entry): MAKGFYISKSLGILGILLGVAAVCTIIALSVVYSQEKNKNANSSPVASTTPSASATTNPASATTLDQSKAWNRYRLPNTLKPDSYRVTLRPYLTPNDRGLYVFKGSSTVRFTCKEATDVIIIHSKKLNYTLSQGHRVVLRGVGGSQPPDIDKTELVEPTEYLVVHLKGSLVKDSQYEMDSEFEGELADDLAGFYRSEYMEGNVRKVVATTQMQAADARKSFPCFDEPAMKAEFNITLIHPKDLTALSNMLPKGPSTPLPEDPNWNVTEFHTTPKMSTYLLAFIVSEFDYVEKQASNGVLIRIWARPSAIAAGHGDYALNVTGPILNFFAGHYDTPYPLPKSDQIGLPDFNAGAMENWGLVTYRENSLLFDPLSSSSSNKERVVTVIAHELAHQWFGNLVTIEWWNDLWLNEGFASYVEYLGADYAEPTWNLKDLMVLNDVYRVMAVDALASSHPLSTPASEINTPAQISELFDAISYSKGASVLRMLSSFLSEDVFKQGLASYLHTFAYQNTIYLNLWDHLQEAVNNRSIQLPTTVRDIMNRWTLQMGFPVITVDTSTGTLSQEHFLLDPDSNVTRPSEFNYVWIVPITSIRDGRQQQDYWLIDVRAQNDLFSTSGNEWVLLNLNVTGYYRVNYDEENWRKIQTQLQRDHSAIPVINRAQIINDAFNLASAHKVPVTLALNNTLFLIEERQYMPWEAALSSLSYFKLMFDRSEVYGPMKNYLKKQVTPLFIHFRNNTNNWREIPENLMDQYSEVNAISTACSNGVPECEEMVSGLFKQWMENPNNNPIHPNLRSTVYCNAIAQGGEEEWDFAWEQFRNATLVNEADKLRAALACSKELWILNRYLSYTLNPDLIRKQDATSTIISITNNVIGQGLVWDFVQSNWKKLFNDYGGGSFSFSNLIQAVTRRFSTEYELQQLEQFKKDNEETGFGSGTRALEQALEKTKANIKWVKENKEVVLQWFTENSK
The test is described as follows: Aminopeptidase N enzyme assay (Ala-AMC substrate, fluorescence). The note with it: for IC50: dose response, 3x dilutions from 100 μM; for inhibition at 10 µM: inhibitor 10 μM, read-out: APN @ 10 μM (percent inhibition). Type of test: biochemical. As to the method: Single concentration studies at 10 μM: Aminopeptidase N assays were performed as described previously. Aminopeptidase N was purchased from R&D Systems. Amino-4-methylcoumarin (Ala-AMC) was purchased from Bachem. Briefly, 0.1 μg/μL APN was incubated with 1 μL of 1 mM inhibitor in 50 mM Tris buffer, pH 7.5, in 100 μL volume in a black 384-well plate in duplicate. The reaction was started with the addition of Ala-AMC substrate at a final concentration of 100 μM. The cleavage accumulation AMC was measured by exciting at 380 nm and reading the fluorescence at 460 nm on a Molecular Devices SpectraMax i3 plate reader for 20 min at room temperature. Percent inhibition is calculated in GraphPad Prism software using slopes in the linear range for each inhibitor at 10 μM.
Dose-Response Studies for APN: Aminopeptidase N enzyme assays were performed as described previously.^26 Briefly, 0.1 μg/μL APN was incubated with 1 μL inhibitor in 50 mM Tris buffer, pH 7.5, in 50 μL volume in a black 384-well plate in duplicate. Compounds were tested at 3× dilutions from 100 μM final concentration. The reaction was started with the addition of Ala-AMC substrate at a final concentration of 100 μM. The accumulation of AMC was measured by exciting at 380 nm and reading the fluorescence at 460 nm on a Molecular Devices SpectraMax i3 plate reader for 30 min at room temperature. Steady state velocities were used to determine IC50 values by fitting the velocities vs. inhibitor concentration to the sigmoidal concentration-response curve (variable slope) using GraphPad Prism.

For test [2], the system named is mice. The test is described as follows: Co-administration of opioid antagonist naloxone in hot-plate and tail-flick assays. The note with it: naloxone s.c. 5 mg/Kg or i.c.v. 5 μg per mouse. The format is in vivo, mouse. As to the method:
Naloxone dissolved in saline was either administered subcutaneously (s.c.; dosage: 5 mg/Kg) via an injection to the interscapular skin, or it was given intracerebroventricularly (5 μg per mouse).
Naloxone is a broad-spectrum opioid receptor antagonist. It is known to interact with, mu- (μ-), delta- (δ-), and kappa- (κ-) opioid receptors, with highest affinity for the μ receptors. […] Naloxone dissolved in saline was delivered subcutaneously (s.c.) via an injection to the interscapular skin.
5 mg/Kg naloxone dissolved in saline was administered subcutaneously (s.c.) via an injection to the interscapular skin. Analgesic efficacy for various time-points was determined in hot-plate and tail-flick assays as detailed above.

T1 sequence (P08473 whole entry, species assumed): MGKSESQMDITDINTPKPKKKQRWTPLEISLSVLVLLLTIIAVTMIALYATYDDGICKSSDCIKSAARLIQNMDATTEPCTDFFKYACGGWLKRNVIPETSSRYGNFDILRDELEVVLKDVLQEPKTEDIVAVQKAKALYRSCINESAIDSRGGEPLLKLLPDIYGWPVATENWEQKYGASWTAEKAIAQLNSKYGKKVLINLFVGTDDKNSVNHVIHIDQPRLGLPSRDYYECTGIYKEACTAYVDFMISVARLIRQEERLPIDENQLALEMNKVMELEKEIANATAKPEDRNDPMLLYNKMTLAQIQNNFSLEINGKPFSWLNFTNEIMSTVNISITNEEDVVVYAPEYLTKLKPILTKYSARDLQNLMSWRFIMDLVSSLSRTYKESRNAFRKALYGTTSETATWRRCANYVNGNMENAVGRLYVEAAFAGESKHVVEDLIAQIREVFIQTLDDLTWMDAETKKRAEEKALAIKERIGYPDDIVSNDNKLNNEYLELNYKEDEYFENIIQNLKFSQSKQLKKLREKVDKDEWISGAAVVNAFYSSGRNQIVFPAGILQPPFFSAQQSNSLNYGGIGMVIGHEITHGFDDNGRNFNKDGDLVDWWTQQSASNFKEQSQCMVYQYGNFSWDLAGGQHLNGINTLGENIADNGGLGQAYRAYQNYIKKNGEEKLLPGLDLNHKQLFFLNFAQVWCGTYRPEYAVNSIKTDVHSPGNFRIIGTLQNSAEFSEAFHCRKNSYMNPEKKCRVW

For `CN1CC[C@]23c4c5ccc(O)c4O[C@H]2[C@@H](O)C=C[C@H]3[C@H]1C5` [Morphine], the “Dose Reduction Index (DRI) Morphine” value in the test with mice [1] (15 min) worked out at 4.47; in the test on mice [1] (30 min) it was 1.96; with mice [1] (45 min) it was 2.43; in the test with mice [1] (60 min) it was 17.0; in the test with mice [1] (60 min, listed as morphine) it was 17. Further, the ED50 with mice [1] (0.25 h, read-out: Morphine ED50 (±SEM)) was 6.29 ± 12.7 mg/kg; with mice [1] (0.5 h, read-out: Morphine ED50 (±SEM)), 3.52 ± 7.2 mg/kg; with mice [1] (0.75 h, read-out: Morphine ED50 (±SEM)), 3.87 ± 2.04 mg/kg; in the test with mice [1] (1 h, read-out: ED50, given alone), 2.5 to 3 mg/kg; with mice [1] (1 h, read-out: Morphine ED50 (±SEM)), 30 ± 204 mg/kg.
In the case of `O=C(O)CNC(=O)C(CS)Cc1ccccc1` (centres unmarked) [Thiorphan], on Neprilysin (NEP), the “activity against NEP (in words)” value is “inhibited only NEP” and the inhibition at 10 µM is 90%. In addition, at Aminopeptidase N (APN), the “activity against APN (in words)” value is “no activity against APN”, the IC50 was greater than 100 µM and the inhibition at 10 µM worked out at 0%.
With `CNC(=O)[C@H](Cc1ccccc1)NC(=O)[C@H](CC(C)C)[C@H](CSc1cccs1)C(=O)NO` [Batimastat], on Neprilysin (NEP), the “activity against NEP (in words)” value was “inhibit both APN and NEP”; it took 4.48 µM to reach half-maximal inhibition (IC50); the inhibition at 10 µM is 60%. On Aminopeptidase N (APN), the “activity against APN (in words)” value is “inhibit both APN and NEP”; the IC50 is 0.21 µM and 0.212 µM.
For `C=CCN1CC[C@]23c4c5ccc(O)c4O[C@H]2C(=O)CC[C@@]3(O)[C@H]1C5` [Naloxone], the “effect on latency, naloxone only groups” value with mice [2] is reported as “no effect on latency”.
In the case of `CC(C)C[C@H](NC(=O)[C@@H](O)[C@H](N)Cc1ccccc1)C(=O)O` [Bestatin], at Neprilysin (NEP), the “activity against NEP (in words)” value was “no activity against NEP”, the IC50 is greater than 100 µM and the inhibition at 10 µM amounted to 0%. Further, at Aminopeptidase N (APN), the “activity against APN (in words)” value was “inhibiting only APN” and the inhibition at 10 µM was determined as 77.6%.

For the origin of these results see patent publication US10925851B2 (Regents of the University of Minnesota, priority 2018, dated 2021).
